{
  "source": "patent US20230242669A1",
  "about": "“ANTIBODY THAT BINDS ERBB-2 AND ERBB-3” (Merus N.V., priority 2014, published 2023)",
  "key": {"BT-474 and SKBR-3 cells": {"test_system": "BT-474 and SKBR-3 cells", "assay": "BT-474 and SKBR-3 growth in […] with HRG (morphology, PCA)", "assay_type": "cell-based, human", "experimental": "The cells were tested at the company Ocello based in Leiden, the Netherlands that grows cells in three dimensional […]® and uses principle component analysis to distinguish non-treated cells from treated cells. 2000 SK-BR-3 or 2250 BT474 cells were seeded in 15µl […]® per well of a 384 well plate (Greiner 781091 ). […] In addition a dose-dependent titration of HRG was included as a positive control. Each dose was tested in quadruplicate. Cells were incubated for 7 days in a cell culture incubator at 37° C., 5% CO2. Next, the cells were fixed and actin cytoskeleton of the cells was stained with phalloidin and the nuclei are stained with Hoechst. Next, fluorescent images were taken at different levels through the gel (Z-stack) and the images were superimposed. A broad range of morphological features were measured (800 in total). Only features that differed between medium and HRG treatments were selected for analysis. […] Both multiparameter and single parameter analyses were made. For single parameter measurements, t-tests were performed to compare treatments (HRG or antibody) to medium. P-values for each point were determined. […]\nThe assay was performed in […]®, as described above, and morphological features were analyzed. […]"}, "[1]": {"test_system": "SKBR-3 cells with FcγRIIIa reporter cells", "assay": "ADCC Reporter Bioassay (Promega)", "assay_type": "cell-based, human", "conditions": "SKBR-3, V158 effector cells", "experimental": "In a different ADCC setup, the ADCC Reporter Bioassay (Promega) was used. The bioassay uses engineered Jurkat cells stably expressing the FcYRIIIa receptor, V158 (high affinity) or F158 (low affinity) variant, and an NFAT response element driving expression of firefly luciferase. The assay was validated by comparing data obtained with the ADCC Reporter Bioassay to the classical ^51Cr release assay. The ADCC assays were performed using the Promega ADCC Bioassay kit using 384 white well plates. In this experimental setup SKBR-3 cells were plated at a density of 1000 cells/well in 30 µl assay medium (RPMI with 4% low IgG serum) 20-24 H before the bioassay. The next day, the culture medium was removed. […] 10 µl antibody dilutions were added to the wells. The starting concentration of the antibody was 10 µg/ml and a 10 points semi-log fold serial dilution was generated to provide a full dose-response curve. Finally, 5 µl of ADCC Bioassay effector cells (15000 cells/well, V158) were added. The cells were incubated for 6 H at 37° C. Next, 15 µl BIO-Glo luciferase substrate was added and 5 minutes later luminescence was detected in a plate reader.\nADCC activity was measured by measuring luciferase activity. […] (FIG. 15)"}, "[2]": {"test_system": "HER2+, HER2++ and HER2+++ breast and gastric cancer cell lines", "assay": "FACS binding to cell lines with different HER2 levels", "set-up": "species or system human", "conditions": "HER2++ and HER2+ cells", "experimental": "Cells were considered HER2+++ if they express millions of HER2 copies and/or are HER2 gene amplified. The following cell lines were used: MCF-7 (HER 2 +); MDA-MB-468 (HER2 +, MKN-45 (HER2 +), MDA-MB-175 (HER2+), MDA-MB-453 (HER2 ++), MDA-MB-361(HER2 ++), ZR-75-1(HER2 ++), JIMT-1 (HER2+++), BT-474 (HER2+++), SKBR-3 (HER2+++), SK-OV-3 (HER2+++), N87 (HER2+++). Cells of an exponentially grown culture were harvested by trypsin and diluted to 10^6 cells/ml in FACS buffer (PBS/0.5%BSA/0.5 mM EDTA). 1-2 10^5 cells were added to each well in a U-bottom 96 well plate. Cells were centrifuged for 2 minutes at 300 g at 4° C. Supernatant was discarded by inverting plate(s) above, followed by flicking once. 50 µl of each IgG sample was added in a serial dilution from 3.16 ng- 10 µg/ml and incubated for 1H on ice. Cells were centrifuged once, supernatant was removed and cells were washed twice with FACS buffer. 50 µl diluted 1:100 mouse anti human IgG gamma PE (INVITROGEN®) was added and incubated for 30-60 minutes on ice in the dark. […] Cells were analysed on a FACSCanto Flow cytometer in a HTS setting. The quantity of antibody bound was assessed by median fluorescence. Data were plotted and the area under the curve (AUC, a cumulative measurement of the median fluorescence intensity) was determined for each antibody per cell line tested (FIG. 26)."}, "JIMT-1 cells": {"test_system": "JIMT-1 cells", "assay": "JIMT-1 proliferation in soft agar", "assay_type": "cell-based, human", "conditions": "10-0.003 µg/ml, 8 days", "experimental": "To this aim 96 well suspension cell culture plates were prepared. 100 µL of the soft agar bottom layer (0.6% final concentration in complete medium) was poured and left to solidify. 50 µL of the soft agar top layer (0.4% final concentration) containing 10.000 JIMT-1 cells/well were then added on top, solidified and such 96 well plates incubated overnight at 37° C., 10% CO2. […] Subsequently, the assay was incubated in cell culture incubators for 8 days. Finally, the cells were incubated with Alamar Blue for 3-5 h at 37° C. and fluorescence intensity was determined (excitation: 560 nm; emission: 590 nm). […] (FIG. 8)."}},
  "data": [
    {"substance": "PB4188: bispecific HER2xHER3 IgG: HER2 arm MF3958, HER3 arm MF3178", "values": [
      {"measurement": "Activity compared to pertuzumab + trastuzumab, PB3448 and MEHD7945A", "setting": "BT-474 and SKBR-3 cells; BT-474 and SKBR-3, in the presence of HRG", "result": "superior activity"},
      {"measurement": "Effect on HRG induced proliferation and branching/invasion phenotype", "setting": "BT-474 and SKBR-3 cells; SKBR-3, 10 ng/ml HRG", "result": "completely revert the HRG induced phenotype"},
      {"measurement": "ADCC potency compared to parental monoclonals or their combination", "setting": "[1]", "result": "higher ADCC potentency"},
      {"measurement": "Binding affinity compared to trastuzumab (AUC of median fluorescence)", "setting": "[2]", "result": "higher binding affinity"},
      {"measurement": "Inhibition of JIMT-1 proliferation", "setting": "JIMT-1 cells", "result": "dose dependent inhibition of JIMT-1 proliferation"}
    ]}
  ]
}
